pIC50, pKd: −log10 of the molar value. ≈ marks a conversion by molar mass, not a printed value.
What was measured:
[1] = Chemical stability assessed as half life by HPLC; assay type: physicochemical
[2] = target: T1, Bcl-2-like protein 1 (Homo sapiens, UniProt Q07817); assay: Inhibition of interaction between GST-tagged Bcl-xl and Bak by fluorescence polarization assay; conditions: for pIC50: read-out: IC50
[3] = system: A549; assay: Cytotoxicity against human A549 cells; assay type: functional, cell-based
[4] = target: T1, Bcl-2-like protein 1; assay: Inhibition of interaction between GST-tagged Bcl-xl and Bak by surface plasmon resonance assay
[5] = target: T1, Bcl-2-like protein 1; assay: Inhibition of interaction between Bcl-xl and Bak by surface plasmon resonance assay; conditions: for pKd: read-out: Kd
[6] = system: Staphylococcus aureus; assay: Antibacterial activity against methicillin-resistant Staphylococcus aureus STA MU50; assay type: functional
[7] = system: HepG2; assay: Cytotoxicity against human HepG2 cells; assay type: functional

T1 sequence (Q07817 whole entry): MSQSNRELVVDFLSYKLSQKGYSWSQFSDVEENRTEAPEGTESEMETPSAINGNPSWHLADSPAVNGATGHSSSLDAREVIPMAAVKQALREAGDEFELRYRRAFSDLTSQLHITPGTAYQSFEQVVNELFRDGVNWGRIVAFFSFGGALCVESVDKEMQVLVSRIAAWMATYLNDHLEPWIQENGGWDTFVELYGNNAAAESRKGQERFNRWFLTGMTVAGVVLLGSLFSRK

## CC1=C2O[C@]34OC(C)(C)O[C@@H]3C2=C(C(=O)C1=O)[C@@H]1O[C@H](CC[C@H](C)/C=C(\C)C[C@@H](C)C[C@@H]4C)[C@H](C)[C@H](O)[C@H]1C
[1]
  half-life: < 39 h
[2]
  Emax: 22%
  pIC50: 5.02
[3]
  pIC50: 4.85

## Cc1cc2c(C(C)C)c(O)c(O)c(C=O)c2c(O)c1-c1c(C)cc2c(C(C)C)c(O)c(O)c(C=O)c2c1O [GOSSYPOL]
[4]
  pKd: 5.77
[5]
  pKd: 3.47

## CC1=C2O[C@]34OC5(CCCCC5)O[C@@H]3C2=C(C(=O)C1=O)[C@@H]1O[C@H](CC[C@H](C)/C=C(\C)C[C@@H](C)C[C@@H]4C)[C@H](C)[C@H](O)[C@H]1C
[2]
  IC50: Not Active
[3]
  pIC50: 4.62

## CC1=C(O)C(=O)C2=C(C1=O)C(O)C(=O)[C@@H](C)C[C@H](C)C/C(C)=C/[C@@H](C)CC[C@H]1O[C@@H]2[C@H](C)[C@@H](O)[C@H]1C (some centres undefined)
[4]
  pKd: 1.97
[2]
  Emax: 35%
  pIC50: 3.64
[5]
  Kd: Not Active
[3]
  pIC50: 4.60

## CC1=C2O[C@]3(O)C=C2C(=C(O)C1=O)[C@@H]1O[C@H](CC[C@H](C)/C=C(\C)C[C@@H](C)C[C@@H]3C)[C@H](C)[C@H](O)[C@H]1C [KENDOMYCIN]
[6]
  MIC: 3.9 µM (≈ 1.9 µg/mL)
[7]
  GI50: < 0.1 µM
[4]
  pKd: 3.28
[1]
  half-life: < 2 h
[2]
  Emax: 70%
  pIC50: 4.91
[5]
  pKd: 2.74
[3]
  pIC50: 4.80

## CC1=C2O[C@]34OC5(CCN(C)CC5)O[C@@H]3C2=C(C(=O)C1=O)[C@@H]1O[C@H](CC[C@H](C)/C=C(\C)C[C@@H](C)C[C@@H]4C)[C@H](C)[C@H](O)[C@H]1C
[4]
  pKd: 3.42
[1]
  half-life: < 23 h
[2]
  Emax: 66%
  pIC50: 5.30
[5]
  pKd: 3.40
[3]
  pIC50: 4.85

## CO[C@@]12C=C3C(=C(C)C(=O)C(O)=C3[C@@H]3O[C@H](CC[C@H](C)/C=C(\C)C[C@@H](C)C[C@@H]1C)[C@H](C)[C@H](O)[C@H]3C)O2
[2]
  IC50: Not Active
[3]
  pIC50: 5.05

From ChEMBL document CHEMBL1143433, “Interaction of kendomycin and semi-synthetic analogues with the anti-apoptotic protein Bcl-xl” (Bioorg Med Chem Lett, 2008)
